Data from patent US9808434B2, “Compound for treating cancer and diabetes” (CITY OF HOPE, priority 2011, dated 2017).

Tests used:
[1] = test system: HepG2 liver carcinoma cells; test: Intracellular AMP:ATP ratio in HepG2; type: cell-based, human; details: 5 μM, 1 h
Procedure: ATP production from cells treated with test compounds were measured using the Luminescent ATP Detection Assay Kit. AMP, ATP and ADP were measured by UV-HPLC.
Total intracellular ATP production in cells treated with either 5 μM COH-SR4 or 5 μM FCCP was measured by bioluminescence assay and expressed as percentage of time-matched vehicle (DMSO) control (FIG. 84A). Intracellular AMP: ATP ratios increased in HepG2 liver carcinoma cells following 1 h treatment with either 5 μM COH-SR4 or 5 μM FCCP (FIG. 84B) and in liver of db/db mice treated with COH-SR4 (5 mg/kg B.W.) for 5 weeks (FIG. 84C). All data represented are mean±SEM, *P<0.05.

HRE promoter = HRE promoter luciferase reporter in U251; type: cell-based; details: U251, 1 or 3 μM, 24 hours, normoxic and hypoxic
Procedure: U251 cells were transfected with plasmids expressing luciferase reporter genes driven by a HRE reporter plasmid containing five copies of the HRE site (5×HRE). Transfected cells were then incubated with COH-SR4 at various concentrations (0, 1, or 3 μM) for 24 hours and assayed for luciferase activities. Data were represented as a ratio to vehicle control that was treated by DMSO.

Hs600T = test: Colony formation assay, Hs600T; type: cell-based, human; details: 10 μM, vs untreated control
Procedure: (§1) Cell survival was evaluated using a standard colony-forming assay. […] After 7 or 10 days, adherent colonies were fixed, stained with 0.5% methylene blue for 30 min and colonies were counted using the Innotech Alpha Imager HP (91).

A2058 = test: Colony formation assay, A2058; type: cell-based, human
Procedure: as §1

GST = GST activity towards CDNB in lung cancer cell supernatants; type: biochemical, human; details: H1417, H1618, H520, H358 supernatants; 1 mM GSH and CDNB
Procedure: In the context of the elevation of GSTs in lung cancer, the impact of COH-SR4 on the catalytic activity of GSTs towards 1-chloro 2,4-dinitro benzene (CDNB), a model substrate used for GST activity was analyzed. GST activity towards 1-chloro 2,4-dinitro benzene (CDNB) and its inhibition by COH-SR4 was performed in 28000×g crude supernatant prepared from H1417, H1618, H520 and H358 cells. The inhibitory effect of COH-SR4 on GST was studied at a fixed concentration of GSH and CDNB (1 mM each) and varying concentrations of inhibitor. The enzymes were pre-incubated with the inhibitor for 5 min at 37° C. prior to the addition of the substrates. The experiment was repeated three times and similar results were obtained. […] Human liver purified GST was used as a control (FIG. 79B, inset). GSTs are a class of phase II detoxifying enzymes, which regulate detoxification of administered chemotherapy drugs for further efflux out of cells by transport proteins. The GST inhibition leads to accumulation of toxic end-products of lipid peroxidation due to decreased efflux of GS-HNE which also reinforces the GST inhibition by feedback inhibition. The over-expression of GSTs is a common phenomenon associated with malignant progression of many cancers including lung cancer, melanomas skin and prostate cancers. […]

A2058 cells = test: Annexin V / propidium iodide flow cytometry, A2058; type: cell-based, human
Procedure: Apoptosis of cells were measured based on loss of membrane integrity using Annexin V-FITC Apoptosis Detection Kit as described by the supplier (BD Biosciences Pharmingen, San Diego, Calif.), in which the early- and late-death cells were stained with Annexin V-FITC and propidium iodide. Cells were analyzed using a CyAn ADP cytometer (Beckman Coulter Inc) to quantify fluorescence. Apoptotic cells were defined as Annexin V-FITC positive.

B16 mouse melanoma tumor = test: Western-blot of signaling proteins in B16 tumor tissue lysates; type: in vivo; details: band density ratio
Procedure: Western-blot analyses of signaling proteins in tumor tissue lysates in control and COH-SR4 treated groups were shown in FIG. 58. Crude fraction (about 50 μg) and WB with various antibodies were used.

[2] = test system: undifferentiated 3T3-L1 cells; test: Preadipocyte viability, MTT assay; type: cell-based, mouse; details: 3 days, 2.5-25 μM
Procedure: Undifferentiated 3T3-LI cells were treated with COH-SR2, COH-SR3, COH-SR4, COH-SR7, LR23 or LR59 for 3 days at a concentration of 2.5 μM, 5 μM, 10 μM, 15 μM, 20 μM, or 25 μM. The cell viability for each treatment was determined by MTT assay (FIG. 7).

[3] = test system: SKOV3, MADH2744 and A2780 DPPr cells; test: Ovarian cancer cell viability, cellular acid phosphatase activity; type: cell-based, human; details: 48 hours, 0-10 μM
Procedure: SKOV3 is a cisplatin resistant human ovarian cancer cell line. Human ovarian cancer cells (SKOV3, MADH2744, and […]) were incubated with COH-SR4 at various concentrations (0˜10 μM) or without COH-SR4 for 48 hours. Cells Viabilities were determined by measuring cellular acid phosphatase activities. Data were represented as a ratio to vehicle (DMSO) control.

PBT003 = test: Glioma ATP viability assay, PBT003; type: cell-based; details: Table 1; 72 hours
Procedure: (§2) Cells of each cell line (U251, U87, PBT-017, PBT018, PBT003 and PBT028) were treated with various concentrations (0˜100 μM) of COH-SR4 for 72 hours. Cell viabilities were determined by ATP viability assays. Data were represented as a ratio to vehicle (DMSO) control, and plotted as mean±SEM (n=12) obtained from 2˜3 experiments (FIG. 34A).
as §2, with “(U87, U251,” for “(U251, U87, PBT-017, PBT018,”, “PVT-017)” for “PBT028)”, “2-3” for “2˜3”, “34B).” for “34A).”

PBT018 = test: Glioma ATP viability assay, PBT018; type: cell-based; details: Table 1; 72 hours
Procedure: as §2

SMILES: O=C(Nc1cc(Cl)cc(Cl)c1)Nc1cc(Cl)cc(Cl)c1 [COH-SR4, 1,3-bis(3,5-dichlorophenyl) urea]
- intracellular AMP:ATP ratios [1]: increased
- luciferase expression driven by HRE promoter (HRE promoter): inhibited luciferase expression driven by HRE promoter
- colony formation (Hs600T): 48±5%
- colony formation (A2058; 5 μM): 43±7%
- colony formation (A2058; 10 μM, vs untreated control): 37±4%
- total GST activity towards CDNB (GST): inhibited the total GST activity to a significant extent
- apoptosis (annexin V / propidium iodide) (A2058 cells): caused apoptosis in A2058 cells in a dose-dependent manner
- Akt, ratio COH-SR4 group/Control Group (B16 mouse melanoma tumor): 0.84
- Bcl2, ratio COH-SR4 group/Control Group (B16 mouse melanoma tumor): 0.39
- Bim, ratio COH-SR4 group/Control Group (B16 mouse melanoma tumor): 5.8
- CDK4, ratio COH-SR4 group/Control Group (B16 mouse melanoma tumor): 0.29
- Cyclin B1, ratio COH-SR4 group/Control Group (B16 mouse melanoma tumor): 0.32
- Fibronectin, ratio COH-SR4 group/Control Group (B16 mouse melanoma tumor): 0.22
- Vimentin, ratio COH-SR4 group/Control Group (B16 mouse melanoma tumor): 0.39
- pAMPK, ratio COH-SR4 group/Control Group (B16 mouse melanoma tumor): 3.1
- pAkt, ratio COH-SR4 group/Control Group (B16 mouse melanoma tumor): 0.32
- growth of undifferentiated preadipocytes (MTT) [2]: inhibited growth of undifferentiated 3T3-L1 cells
- cytotoxicity on regular and cisplatin-resistant ovarian cancer cells [3]: dose-dependent cytotoxicity and anti-proliferative effects
- IC50 (PBT003): 1.5 µM
- IC50 (PBT018): 6.5 µM
